{"source": "patent US20250057823A1", "about": "“COMPOSITION FOR IMPROVING CARDIAC FUNCTION” (Kyoto University, priority 2021, published 2025)", "assay_type_in_all_cases": "in vivo", "key": {"[1]": {"tested_on": "mouse models of pressure overload-induced cardiac hypertrophy/heart failure (TAC)", "assay": "Mouse models of pressure overload-induced (TAC) heart failure during acute phase", "details": "TAC mice, 50 mg/kg i.p. immediately after TAC, three hours later", "experimental": "(§1) Transverse aortic constriction (TAC) was performed as described previously [Date, et al. (2002) The antioxidant N-2-mercaptopropionyl glycine attenuates left ventricular hypertrophy in in vivo murine pressure-overload model. J Am Coll Cardiol 39: 907-912.]. Briefly, 8- to 10-week-old mice were anesthetized with anesthetic (0.3 mg/kg of medetomidine, 4.0 mg/kg of midazolam, and 5.0 mg/kg of butorphanol) administered intraperitoneally, and the proximal portion of the sternum was cut open to visualize the aorta. A 7-0 silk suture was placed around the aortic arch distal to the brachiocephalic artery. The suture was tightened firmly around a blunt 26-gauge needle placed adjacent to the aorta. The needle was then removed, and the chest and overlying skin were closed. Sham-operated mice underwent an identical surgical procedure without ligation of the aortic arch. At the end of the operation, 0.3 mg/kg of atipamezole was administered subcutaneously to reverse medetomidine. FIG. 1 is a schematic diagram of TAC.\nTo extract total RNA, tissue samples were homogenized using a polytron homogenizer in 1 mL of TriPure reagent (Sigma-Aldrich), and the total RNA was extracted in accordance with the manufacture's protocol. Total RNA extracted from cells was also isolated using 1 mL of TriPure reagent. The quantity and quality of total RNA were determined using a NanoDrop™2000 spectrophotometer (Thermo Scientific).\nTotal RNA was reverse transcribed by blend primer of random hexamers and oligo-dT 3:1 (volume/volume) using Verso™ cDNA Synthesis Kit (Thermo Fisher Scientific, AB1453A) in accordance with the manufacturer's protocol, and the cDNA was analyzed by qRT-PCR. qRT-PCR measurements used THUNDERBIRD SYBR qPCR Mix (TOYOBO) in accordance with the manufacturer's instructions. Expression levels of messenger RNAs (mRNAs) were normalized by the indicated housekeeping genes, and calculated by the 2^−ΔΔCt method. All analyses were performed using a StepOnePlus real-time PCR system and StepOne Software v2.3 (Applied Biosystems, Inc). […]"}, "[2]": {"tested_on": "mouse models of pressure overload-induced cardiac hypertrophy/heart failure (TAC)", "assay": "Mouse models of TAC heart failure during cardiac hypertrophic phase", "experimental": "as §1\n(§2) Total RNA was reverse transcribed by blend primer of random hexamers and oligo-dT 3:1 (volume/volume) using Verso™ cDNA Synthesis Kit (Thermo Fisher Scientific, AB1453A) in accordance with the manufacturer's protocol, and the cDNA was analyzed by qRT-PCR. qRT-PCR measurements used THUNDERBIRD SYBR qPCR Mix (TOYOBO) in accordance with the manufacturer's instructions. Expression levels of messenger RNAs (mRNAs) were normalized by the indicated housekeeping genes, and calculated by the 2^−ΔΔCt method. All analyses were performed using a StepOnePlus real-time PCR system and StepOne Software v2.3 (Applied Biosystems, Inc).\nWheat Germ Agglutinin (WGA) Staining and the Quantification Paraffin-embedded ventricular short-axis sections were stained with FITC-conjugated lectin (Sigma, L4895). Images were captured by Axio Observer7 (Zeiss). Cardiomyocyte cross-sectional area measurement was performed using ImageJ64 software (NIH). Approximately 150-200 cells were measured per heart, and averages were used for the analysis.\n(§3) To analyze the cardiac function, we used Vevo® 2100 (VISUALSONICS) at the indicated time points after TAC operation. Mice were kept under inhalation anesthesia with 2.5% isoflurane. LV function was measured in M mode of the parasternal short-axis view.\nMouse models of pressure overload-induced cardiac hypertrophy/heart failure were prepared by TAC and were injected intraperitoneally with 50 mg/kg of KUS121 daily for 2 weeks starting immediately after TAC. Sham-operated mice and control mice were injected with 5% glucose. Two weeks after TAC, echocardiography was performed, then the mice were sacrificed, the body weight and heart weight were measured, and heart samples were collected."}, "[3]": {"tested_on": "mouse models of pressure overload-induced cardiac hypertrophy/heart failure (TAC)", "assay": "Mouse models of TAC heart failure during heart failure phase", "details": "50 mg/kg i.p. daily for 3 weeks starting 5 weeks after TAC", "experimental": "as §1, §2\nTissues were fixed with 4% paraformaldehyde, dehydrated with 70% ethanol, and then embedded in paraffin. Deparaffinized sections were stained with hematoxylin solution for cell nucleus, and stained with eosin solution for cytoplasm. Images were captured by Axio Observer7 (Zeiss). Cardiomyocyte cross-sectional area measurement was performed using ImageJ64 software (NIH). Approximately 150-200 cells were measured per heart, and averages were used for the analysis.\nAs described above, deparaffinized sections were stained with hematoxylin solution for cell nucleus, Masson solution for cytoplasm, and aniline blue for collagen fiber. Images were captured by a microscopy (BZ-9000, Keyence). Aniline blue-stained regions were measured using ImageJ64 software (NIH).\nas §3\nMouse models of pressure overload-induced cardiac hypertrophy/heart failure were prepared by TAC and were injected intraperitoneally with 50 mg/kg of KUS121 daily for 3 weeks starting 5 weeks after TAC. Sham-operated mice and control mice were injected with 5% glucose. Echocardiography was performed 5 weeks and 8 weeks after TAC. Eight weeks after TAC, the mice were sacrificed, the body weight and heart weight were measured, and heart samples were collected."}, "[4]": {"tested_on": "TAC mice", "assay": "Acute effect on mouse models of heart failure (TAC, single injection 5 weeks later)", "experimental": "as §1, §3\nMice were subjected to TAC at 8 weeks of age. Five weeks later (at 13 weeks of age), the mice were injected with KUS121 (50 mg/kg), and left ventricular ejection fraction (LVEF), left ventricular end-diastolic diameter (LVDd), and heart rate (HR) were assessed by echocardiography before and 10 minutes after the injection.\nMice were subjected to TAC at 8 weeks of age. Five weeks later (at 13 weeks of age), the mice were injected with KUS121 (50 mg/kg), and left ventricular pressure was measured by catheterization before and 10 minutes after the injection. The left ventricular pressure was 46.6 mmHg before KUS121 administration, and increased to 128.9 mmHg 10 minutes after the administration. In addition, Max/min dp/dt was changed from 1295.5/−621.4 mmHg/s to 3972.8/−1311.1 mmHg/s. […] Left ventricular ejection fraction was then measured over time and was 37% before KUS121 administration, increased to 67% 5 minutes after the administration, and returned to the baseline about 2 hours after the administration (FIG. 16).\nMice were subjected to TAC at 8 weeks of age. Five weeks later (at 13 weeks of age), the mice were injected with KUS187 (50 mg/kg), and left ventricular ejection fraction was assessed by echocardiography before and 10 minutes after the injection."}, "[5]": {"details": "TAC mice, 50 mg/kg i.p. daily for 2 weeks starting immediately after TAC"}, "[6]": {"details": "echocardiography two weeks after TAC, 50 mg/kg i.p. daily"}, "[7]": {"details": "heart tissue, qRT-PCR, 50 mg/kg i.p. daily for 2 weeks after TAC"}, "[8]": {"details": "TAC mice 5 weeks after TAC, 50 mg/kg, echocardiography before and 10 minutes after injection"}}, "note": "Entries after “also recorded” stand apart in the source; their conditions may differ. Counter-ions that a name gives are not always drawn.", "data": [{"smiles": "Cc1cc(F)ccc1-c1ccc(/N=N/c2cc(S(=O)(=O)O)c3ccccc3c2N)cn1", "note": "[KUS121, 4-amino-3-[6-(4-fluoro-2-methylphenyl)pyridine-3-ylazo]naphthalene-1-sulfonic acid sodium salt]", "values": [{"measurement": "ratio of heart weight to body weight", "setting": "[1]", "value": "not significantly affected"}, {"measurement": "mRNA level of BNP", "setting": "[1]; vs 5% glucose control", "value": "suppressed the increases"}, {"measurement": "ratio of lung weight to body weight", "setting": "[1]; vs 5% glucose control", "value": "suppressed the increases"}, {"measurement": "cardiomyocyte cross-sectional area (WGA staining)", "setting": "[2]; [5]", "value": "suppressed the increase"}, {"measurement": "heart weight", "setting": "[2]; [5]", "value": "suppressed the increases"}, {"measurement": "ratio of heart weight to body weight", "setting": "[2]; [5]", "value": "suppressed the increases"}, {"measurement": "interventricular septum diameter at end-diastole (IVSd)", "setting": "[2]; [6]", "value": "suppressed both"}, {"measurement": "left ventricular ejection fraction (LVEF)", "setting": "[2]; [6]", "value": "did not significantly suppress the decrease"}, {"measurement": "left ventricular mass", "setting": "[2]; [6]", "value": "suppressed both"}, {"measurement": "mRNA levels of cardiac hypertrophy markers (BNP and ANF)", "setting": "[2]; [7]", "value": "suppressed the increases"}, {"measurement": "mRNA levels of endoplasmic reticulum stress markers (Bip, CHOP, and VCP)", "setting": "[2]; [7]", "value": "not significantly affected"}, {"measurement": "cardiomyocyte cross-sectional area", "setting": "[3]; TAC mice", "value": "suppressed it"}, {"measurement": "fibrotic area in Masson's trichrome-stained heart", "setting": "[3]; TAC mice", "value": "suppressed"}, {"measurement": "heart weight", "setting": "[3]; TAC mice, 8 weeks after TAC", "value": "suppressed the increase in heart weight"}, {"measurement": "left ventricular systolic dysfunction (LVEF, echocardiography)", "setting": "[3]; TAC mice, 8 weeks after TAC", "value": "suppressed the dysfunction"}, {"measurement": "mRNA level of Col1a1 (cardiac fibrosis marker)", "setting": "[3]; heart, qRT-PCR", "value": "suppressed"}, {"measurement": "mRNA level of Postn (cardiac fibrosis marker)", "setting": "[3]; heart, qRT-PCR", "value": "suppressed"}, {"measurement": "mRNA level of VCP", "setting": "[3]; heart, qRT-PCR", "value": "increased the mRNA level of VCP"}, {"measurement": "mRNA levels of ANF, BNP, CHOP and Bip (other cardiac hypertrophy and endoplasmic reticulum stress markers)", "setting": "[3]; heart, qRT-PCR", "value": "did not significantly affect the other mRNA levels"}, {"measurement": "left ventricular ejection fraction", "setting": "[4]; 5 minutes after 50 mg/kg, 37% before administration", "value": 67, "unit": "%"}, {"measurement": "heart rate (HR)", "setting": "[4]; TAC mice 5 weeks after TAC, 50 mg/kg, before and 10 minutes after injection, sodium salt, 50 mg/kg", "value": "without significantly affecting heart rate; also recorded: without affecting HR"}, {"measurement": "left ventricular ejection fraction (LVEF)", "setting": "[4]; [8]", "value": "Recoveries"}, {"measurement": "left ventricular end-diastolic diameter (LVDd)", "setting": "[4]; [8]", "value": "Recoveries"}, {"measurement": "time after administration at which left ventricular ejection fraction returned to the baseline", "setting": "[4]; TAC mice, 50 mg/kg, LVEF measured over time", "value": "about 2 hours"}, {"measurement": "left ventricular pressure", "setting": "[4]; catheterization, 10 minutes after 50 mg/kg, 46.6 mmHg before administration", "value": 128.9, "unit": "mmHg"}, {"measurement": "Max dp/dt", "setting": "[4]; catheterization, 10 minutes after 50 mg/kg, 1295.5 mmHg/s before administration", "value": 3972.8, "unit": "mmHg/s"}, {"measurement": "min dp/dt", "setting": "[4]; catheterization, 10 minutes after 50 mg/kg, −621.4 mmHg/s before administration", "value": "−1311.1", "unit": "mmHg/s"}]}]}
